Measurements published in ChEMBL document CHEMBL1149262, “Monoamine transporter binding, locomotor activity, and drug discrimination properties of 3-(4-substituted-phenyl)tropane-2-carboxylic acid methyl ester isomers” (J Med Chem, 2004).
Calls of active or inactive are those of the source. The rule behind the calls is not given here.

How the values were obtained:
[1] = test system: Mus musculus; assay: Locomotor activity in CD1 mouse assessed as stimulation at 0.3 mg/kg, ip after 1 hr relative to control; assay type: functional; details: route intraperitoneal
[2] = test system: Mus musculus; assay: Locomotor activity in CD1 mouse assessed as stimulation at 0.3 mg/kg, ip after 2 hrs relative to control; assay type: functional; details: route intraperitoneal
[3] = test system: Mus musculus; assay: Locomotor activity in CD1 mouse assessed as stimulation at 0.3 mg/kg, ip after 3 hrs relative to control; assay type: functional; details: route intraperitoneal
[4] = test system: Mus musculus; assay: Locomotor activity in CD1 mouse assessed as stimulation at 0.3 mg/kg, ip after 4 hrs relative to control; assay type: functional; details: route intraperitoneal
[5] = test system: Mus musculus; assay: Locomotor activity in CD1 mouse assessed as stimulation at 1 mg/kg, ip after 1 hr relative to control; assay type: functional; details: route intraperitoneal
[6] = test system: Mus musculus; assay: Locomotor activity in CD1 mouse assessed as stimulation at 1 mg/kg, ip after 2 hrs relative to control; assay type: functional; details: route intraperitoneal
[7] = test system: Mus musculus; assay: Locomotor activity in CD1 mouse assessed as stimulation at 1 mg/kg, ip after 3 hrs relative to control; assay type: functional; details: route intraperitoneal
[8] = test system: Mus musculus; assay: Locomotor activity in CD1 mouse assessed as stimulation at 1 mg/kg, ip after 4 hrs relative to control; assay type: functional; details: route intraperitoneal
[9] = test system: Rattus norvegicus; assay: Cocaine discrimination in ip dosed CD Albino rat; assay type: functional
[10] = test system: Rattus norvegicus; assay: Drug discrimination effect in CD Albino rat assessed as percent of rat choosing cocaine lever at 0.17 mg/kg, ip; assay type: functional; details: route intraperitoneal
[11] = test system: Rattus norvegicus; assay: Drug discrimination effect in CD Albino rat assessed as percent of rat choosing cocaine lever at 0.3 mg/kg, ip; assay type: functional; details: route intraperitoneal
[12] = test system: Rattus norvegicus; assay: Drug discrimination effect in CD Albino rat assessed as percent of rat choosing cocaine lever at 0.56 mg/kg, ip; assay type: functional; details: route intraperitoneal
[13] = test system: Rattus norvegicus; assay: Drug discrimination effect in CD Albino rat assessed as percent of rat choosing cocaine lever at 1 mg/kg, ip; assay type: functional; details: route intraperitoneal
[14] = test system: Mus musculus; assay: Activity in CD1 mouse assessed as hyperactivity at 1 mg/kg, ip after 4 hrs; assay type: functional, organism-based; parameters: dose 1 mg/kg
[15] = test system: Mus musculus; assay: Activity in CD1 mouse assessed as stereotypy at 1 mg/kg, ip after 4 hrs; assay type: functional, organism-based; parameters: dose 1 mg/kg
[16] = test system: Mus musculus; assay: Activity in CD1 mouse assessed as hyperactivity at 10 mg/kg, ip after 4 hrs; assay type: functional, organism-based; parameters: dose 10 mg/kg
[17] = test system: Mus musculus; assay: Activity in CD1 mouse assessed as stereotypy at 10 mg/kg, ip after 4 hrs; assay type: functional, organism-based; parameters: dose 10 mg/kg
[18] = test system: Mus musculus; assay: Activity in CD1 mouse assessed as circling at 10 mg/kg, ip after 4 hrs; assay type: functional, organism-based; parameters: dose 10 mg/kg
[19] = test system: Mus musculus; assay: Activity in CD1 mouse assessed as stereotypy at 100 mg/kg, ip after 4 hrs; assay type: functional, organism-based; parameters: dose 100 mg/kg
[20] = test system: Mus musculus; assay: Activity in CD1 mouse assessed as straub tail at 100 mg/kg, ip after 4 hrs; assay type: functional, organism-based; parameters: dose 100 mg/kg
[21] = test system: Mus musculus; assay: Activity in CD1 mouse assessed as convulsions at 100 mg/kg, ip after 4 hrs; assay type: functional, organism-based; parameters: dose 100 mg/kg
[22] = target: Sodium-dependent noradrenaline transporter (Homo sapiens, UniProt P23975); assay: Displacement of [3H]nisoxetine from NET
Sequence of Sodium-dependent noradrenaline transporter (P23975 whole entry): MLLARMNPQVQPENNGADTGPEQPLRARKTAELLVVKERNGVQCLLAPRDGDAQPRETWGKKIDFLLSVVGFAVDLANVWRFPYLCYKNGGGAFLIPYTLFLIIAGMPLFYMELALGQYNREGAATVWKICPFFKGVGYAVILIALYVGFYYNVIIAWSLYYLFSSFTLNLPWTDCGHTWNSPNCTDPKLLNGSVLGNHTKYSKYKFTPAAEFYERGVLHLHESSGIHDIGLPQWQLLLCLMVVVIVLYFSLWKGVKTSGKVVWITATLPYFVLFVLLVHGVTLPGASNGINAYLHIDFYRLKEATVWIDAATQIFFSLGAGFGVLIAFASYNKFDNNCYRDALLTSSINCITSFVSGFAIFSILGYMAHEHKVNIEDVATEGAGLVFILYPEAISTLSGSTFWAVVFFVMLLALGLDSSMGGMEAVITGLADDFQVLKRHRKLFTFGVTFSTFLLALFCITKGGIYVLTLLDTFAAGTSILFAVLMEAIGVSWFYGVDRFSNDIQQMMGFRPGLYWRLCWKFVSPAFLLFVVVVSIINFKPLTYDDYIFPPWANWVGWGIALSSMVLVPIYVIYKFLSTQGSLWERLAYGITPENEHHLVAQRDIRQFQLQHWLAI

[23] = test system: Mus musculus; assay: Locomotor activity in ip dosed CD1 mouse in peak hour; assay type: functional
[24] = test system: Mus musculus; assay: Locomotor activity in CD1 mouse assessed as stimulation at 3 mg/kg, ip after 1 hr relative to control; assay type: functional; details: route intraperitoneal
[25] = test system: Mus musculus; assay: Locomotor activity in CD1 mouse assessed as stimulation at 3 mg/kg, ip after 2 hrs relative to control; assay type: functional; details: route intraperitoneal
[26] = test system: Mus musculus; assay: Locomotor activity in CD1 mouse assessed as stimulation at 3 mg/kg, ip after 3 hrs relative to control; assay type: functional; details: route intraperitoneal
[27] = test system: Mus musculus; assay: Locomotor activity in CD1 mouse assessed as stimulation at 3 mg/kg, ip after 4 hrs relative to control; assay type: functional; details: route intraperitoneal
[28] = test system: Mus musculus; assay: Locomotor activity in CD1 mouse assessed as stimulation at 10 mg/kg, ip after 1 hr relative to control; assay type: functional; details: route intraperitoneal
[29] = test system: Mus musculus; assay: Locomotor activity in CD1 mouse assessed as stimulation at 10 mg/kg, ip after 2 hrs relative to control; assay type: functional; details: route intraperitoneal
[30] = test system: Mus musculus; assay: Locomotor activity in CD1 mouse assessed as stimulation at 10 mg/kg, ip after 3 hrs relative to control; assay type: functional; details: route intraperitoneal
[31] = test system: Mus musculus; assay: Locomotor activity in CD1 mouse assessed as stimulation at 10 mg/kg, ip after 4 hrs relative to control; assay type: functional; details: route intraperitoneal
[32] = target: Sodium-dependent dopamine transporter (Homo sapiens, UniProt Q01959); assay: Displacement of [3H]WIN-35428 from DAT
Sequence of Sodium-dependent dopamine transporter (Q01959 whole entry): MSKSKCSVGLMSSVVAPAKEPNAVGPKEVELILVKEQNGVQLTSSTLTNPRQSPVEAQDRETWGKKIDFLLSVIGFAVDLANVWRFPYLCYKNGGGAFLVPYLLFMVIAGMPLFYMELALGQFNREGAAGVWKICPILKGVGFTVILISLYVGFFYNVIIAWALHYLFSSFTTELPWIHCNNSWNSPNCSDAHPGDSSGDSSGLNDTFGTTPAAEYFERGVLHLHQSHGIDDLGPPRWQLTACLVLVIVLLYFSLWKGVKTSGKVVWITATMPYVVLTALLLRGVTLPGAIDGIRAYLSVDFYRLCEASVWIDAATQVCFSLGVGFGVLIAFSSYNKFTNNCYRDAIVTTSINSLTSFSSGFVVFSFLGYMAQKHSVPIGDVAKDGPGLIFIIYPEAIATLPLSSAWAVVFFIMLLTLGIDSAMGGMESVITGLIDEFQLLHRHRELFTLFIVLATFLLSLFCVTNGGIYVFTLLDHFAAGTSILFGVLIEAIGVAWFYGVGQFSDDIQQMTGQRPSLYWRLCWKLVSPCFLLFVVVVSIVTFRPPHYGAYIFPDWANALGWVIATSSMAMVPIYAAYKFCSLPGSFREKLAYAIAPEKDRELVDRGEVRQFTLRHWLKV

[33] = test system: Rattus norvegicus; assay: Drug discrimination effect in CD Albino rat assessed as percent of rat choosing cocaine lever at 0.1 mg/kg, ip; assay type: functional; details: route intraperitoneal
[34] = test system: Rattus norvegicus; assay: Drug discrimination effect in CD Albino rat assessed as percent of rat choosing cocaine lever at 1.7 mg/kg, ip; assay type: functional; details: route intraperitoneal
[35] = test system: Rattus norvegicus; assay: Drug discrimination effect in CD Albino rat assessed as percent of rat choosing cocaine lever at 3 mg/kg, ip; assay type: functional; details: route intraperitoneal
[36] = test system: Rattus norvegicus; assay: Drug discrimination effect in CD Albino rat assessed as percent of rat choosing cocaine lever at 5.6 mg/kg, ip; assay type: functional; details: route intraperitoneal
[37] = test system: Rattus norvegicus; assay: Drug discrimination effect in CD Albino rat assessed as percent of rat choosing cocaine lever at 10 mg/kg, ip; assay type: functional; details: route intraperitoneal
[38] = test system: Mus musculus; assay: Activity in CD1 mouse assessed as hyperactivity at 100 mg/kg, ip after 4 hrs; assay type: functional, organism-based; parameters: dose 100 mg/kg
[39] = test system: Mus musculus; assay: Locomotor activity in CD1 mouse assessed as stimulation at 30 mg/kg, ip after 1 hr relative to control; assay type: functional; details: route intraperitoneal
[40] = test system: Mus musculus; assay: Locomotor activity in CD1 mouse assessed as stimulation at 30 mg/kg, ip after 2 hrs relative to control; assay type: functional; details: route intraperitoneal
[41] = test system: Mus musculus; assay: Locomotor activity in CD1 mouse assessed as stimulation at 30 mg/kg, ip after 3 hrs relative to control; assay type: functional; details: route intraperitoneal
[42] = test system: Mus musculus; assay: Locomotor activity in CD1 mouse assessed as stimulation at 30 mg/kg, ip after 4 hrs relative to control; assay type: functional; details: route intraperitoneal
[43] = test system: Mus musculus; assay: Locomotor activity in CD1 mouse assessed as stimulation at 100 mg/kg, ip after 1 hr relative to control; assay type: functional; details: route intraperitoneal
[44] = test system: Mus musculus; assay: Locomotor activity in CD1 mouse assessed as stimulation at 100 mg/kg, ip after 2 hrs relative to control; assay type: functional; details: route intraperitoneal
[45] = test system: Mus musculus; assay: Locomotor activity in CD1 mouse assessed as stimulation at 100 mg/kg, ip after 3 hrs relative to control; assay type: functional; details: route intraperitoneal
[46] = test system: Mus musculus; assay: Locomotor activity in CD1 mouse assessed as stimulation at 100 mg/kg, ip after 4 hrs relative to control; assay type: functional; details: route intraperitoneal

| SMILES | Activity [1] [%] | Activity [2] [%] | Activity [3] [%] | Activity [4] [%] | Activity [5] [%] | Activity [6] [%] | Activity [7] [%] | Activity [8] [%] | ED50 [9] [mg/kg] | Activity [13] [%] | Activity [19] | ED50 [23] [mg/kg] | Activity [24] [%] | Activity [25] [%] | Activity [26] [%] | Activity [27] [%] | Activity [28] [%] | Activity [29] [%] | Activity [30] [%] | Activity [31] [%] | further results |
| --- | --- | --- | --- | --- | --- | --- | --- | --- | --- | --- | --- | --- | --- | --- | --- | --- | --- | --- | --- | --- | --- |
| COC(=O)[C@@H]1C2CC[C@H](C[C@@H]1c1ccccc1)N2C | 44 | 56 | 24 | 62 | 253 | 192 | 102 | 151 | 0.34 | 100 | Active | 1.2 | 660 | 506 | 276 | 199 | 904 | 1080 | 964 | 190 | Activity [10]: 14%; Activity [11]: 36%; Activity [12]: 88%; Activity [14]: Active; Activity [15]: Active; Activity [16]: Active; Activity [17]: Active; Activity [18]: Active; Activity [20]: Active; Activity [21]: Active; IC50 [22]: 920 nM; Ki [22]: 550 nM |
| COC(=O)[C@@H]1C2CC[C@H](C[C@@H]1c1ccc(C)cc1)N2C | 19 | -3 | -61 | -28 | 305 | 298 | 41 | -4 | 0.31 | 86 | Active | 0.6 | 533 | 460 | 157 | 30 | 283 | 476 | 343 | 273 | Activity [10]: 25%; Activity [11]: 57%; Activity [12]: 71%; Activity [17]: Active; IC50 [32]: 1.7 nM; IC50 [22]: 60 nM; Ki [22]: 36 nM; Activity [33]: 0% |
| COC(=O)[C@H]1[C@@H](OC(=O)c2ccccc2)C[C@@H]2CC[C@H]1N2C [COCAINE] |  |  |  |  |  |  |  |  | 2.44 | 21 | Active | 10 | 27 | 14 | -17 | -9 | 127 | 24 | 10 | -21 | Activity [34]: 32%; Activity [35]: 59%; Activity [36]: 82%; Activity [37]: 97%; Activity [16]: Active; Activity [38]: Active; Activity [21]: Active; Activity [39]: 341%; Activity [40]: 100%; Activity [41]: -10%; Activity [42]: 16%; Activity [43]: 269%; Activity [44]: 391%; Activity [45]: 255%; Activity [46]: 91% |
